For 14 compounds, IC50 results are on record in patent publication US9540358B2, “Tricyclic compounds as anticancer agents” (ICAHN SCHOOL OF MEDICINE AT MOUNT SINAI, priority 2011, dated 2017).

The IC50 is the concentration at which inhibition is half-maximal. Low readings indicate inhibition by little substance, high ones a need for much substance.

SMILES strings stand for the structures.

This test relates to H1650 lung cancer cells. In words: Cell viability assay (MTT, IC50 determination). As to conditions: Homo sapiens, NCI-H1650, 48 hours after drug treatment, MTT. It counts as cell-based. The protocol:
89(22): p. […] H1650 lung cancer cells were plated at 150,000 cells per well in a 12 well plate. Twenty-four hours after plating, cells were treated as described with increasing concentrations of drug and control. Forty-eight hours after drug treatment, cells were treated with 100 μL of 3-(4,5-Dimethylthiazol-2-yl)-2,5-diphenyltetrazolium bromide (MTT) and incubated for 2 hours at 37 C. The MTT solution was subsequently replaced with 300 μL of n-propyl alcohol and re-aliquoted to a 96 well plates. Spectrophotometric analysis of each solution was performed using a 96 well plate reader at 600 nm in triplicate.
As to `O=S(=O)(NCCN1c2ccccc2Sc2ccc(Cl)cc21)c1ccc(C(F)(F)F)cc1` [Example 41, 4-trifluoromethyl-N-(2-(2-chloro-10H-phenothiazin-10-yl)ethyl)benzenesulfonamide], the 50% inhibitory concentration (IC50) is about 25 µM.

For `O=S(=O)(NCCN1c2ccccc2Sc2ccc(Cl)cc21)c1ccc(OC(F)(F)F)cc1` [Example 42, 4-trifluoromethoxy-N-(2-(2-chloro-10H-phenothiazin-10-yl)ethyl)benzenesulfonamide], the IC50 is about 25 µM.

`Nc1ccc2c(c1)N(CCCNS(=O)(=O)c1ccc(C(F)(F)F)cc1)c1ccccc1CC2` [Example 43, N-(3-(3-amino-10,11-dihydro-5H-dibenzo[b,f]azepin-5-yl)propyl)-4-(trifluoromethyl)benzenesulfonamide] displayed a concentration for half-maximal inhibition (IC50) of about 35 µM.

`[N-]=[N+]=Nc1ccc2c(c1)N(CCCNS(=O)(=O)c1ccc(C(F)(F)F)cc1)c1ccccc1CC2` [Example 44, N-(3-(3-azido-10,11-dihydro-5H-dibenzo[b,f]azepin-5-yl)propyl)-4-(trifluoromethyl)benzenesfulfonamide] showed an IC50 of about 30 µM.

Compound `O=S(=O)(NCCCN1c2ccccc2CCc2ccc(Cl)cc21)c1ccccc1` [Example 45, N-(3-(3-chloro-10,11-dihydro-5H-dibenzo[b,f]azepin-5-yl)propyl)benzenesulfonamide] came in with an IC50 of about 25 µM.

On to `O=S(=O)(NCCN1c2ccccc2Sc2ccccc21)c1ccc(OC(F)(F)F)cc1` [Example 46, N-(2-(10H-phenothiazin-10-yl)ethyl)-4-trifluoromethoxybenzenesulfonamide], for which the concentration for half-maximal inhibition (IC50) was about 30 µM.

With `O=S(=O)(NCCN1c2ccccc2Sc2ccccc21)c1ccc(Cl)cc1` [Example 47, N-(2-(10H-phenothiazin-10-yl)ethyl)-4-chlorobenzenesulfonamide], the IC50 was about 30 µM.

Compound `O=S(=O)(NCCC=C1c2ccccc2CCc2ccccc21)c1ccc(Cl)cc1` [Example 50, 4-Chloro-N-(3-(10,11-dihydro-5H-dibenzo[a,d][7]annulen-5-ylidene)propyl)benzenesulfonamide] gave an IC50 of about 15 µM.

In turn, `O=S(=O)(NCCC=C1c2ccccc2CCc2ccccc21)c1ccc(OC(F)(F)F)cc1` [Example 51, N-(3-(10,11-dihydro-5H-dibenzo[a,d][7]annulen-5-ylidene)propyl)-4-(trifluoromethoxy)benzenesulfonamide] gave an IC50 of about 20 µM.

In the case of `O=S(=O)(NCCCN1c2ccc(Cl)cc2CCc2cc(Cl)ccc21)c1ccc(Cl)cc1` [Example 52, 4-Chloro-N-(3-(2,8-dichloro-10,11-dihydro-5H-dibenzo[b,f]azepin-5-yl)propyl)benzenesulfonamide], the IC50 is about 10 µM.

In turn, `O=S(=O)(NCCCN1c2ccc(Cl)cc2CCc2cc(Cl)ccc21)c1ccc(OC(F)(F)F)cc1` [Example 53, 4-Trifluoromethoxy-N-(3-(2,8-dichloro-10,11-dihydro-5H-dibenzo[b,f]azepin-5-yl)propyl)benzenesulfonamide] showed an IC50 of about 10 µM.

The compound `O=S(=O)(NCCCN1c2ccccc2CCc2ccc(Cl)cc21)c1cccc(OC(F)(F)F)c1` [Example 54, N-(3-(3-chloro-10,11-dihydro-5H-dibenzo[b,f]azepin-5-yl)propyl)-3-(trifluoromethoxy)benzenesulfonamide] gave an IC50 of about 15 µM.

Take `O=S(=O)(NCCNC1c2ccccc2CCc2ccccc21)c1ccc(Cl)cc1` [Example 55, 4-Chloro-N-(2-((10,11-dihydro-5H-dibenzo[a,d][7]annulen-5-yl)amino)ethyl)benzenesulfonamide]: the IC50 was about 25 µM.

`O=S(=O)(NCCNC1c2ccccc2CCc2ccccc21)c1ccc(OC(F)(F)F)cc1` [Example 56, 4-Trifluoromethoxy-N-(2-((10,11-dihydro-5H-dibenzo[a,d][7]annulen-5-yl)amino)ethyl)benzenesulfonamide]: the IC50 was about 25 µM.
